Reference: PubChem BioAssay (NCI)
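1) Cells in 96-well plates. 2) Compound, 48 h, 5 concentrations. 3) Linear interpolation between surrounding doses. 4) Unreached endpoint = highest concentration. At the GI50, growth is halved. At the TGI there is no net growth.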

How the values were obtained:
Assay in all cases: NCI tumour cell line growth inhibition, 48 h
SK-OV-3 ovarian = system: SK-OV-3 ovarian
MDA-MB-435 = system: MDA-MB-435
HCT-116 colon = system: HCT-116 colon
HCT-15 colon = system: HCT-15 colon
HT29 colon = system: HT29 colon
OVCAR-5 ovarian = system: OVCAR-5 ovarian
CAKI-1 renal = system: CAKI-1 renal
NCI-H460 lung = system: NCI-H460 lung
UACC-62 melanoma = system: UACC-62 melanoma
NCI-H522 lung = system: NCI-H522 lung
U251 CNS = system: U251 CNS
BT-549 breast = system: BT-549 breast
SNB-75 CNS = system: SNB-75 CNS
SF-295 CNS = system: SF-295 CNS
SF-268 CNS = system: SF-268 CNS
RXF 393 renal = system: RXF 393 renal
MCF7 breast = system: MCF7 breast
TK-10 renal = system: TK-10 renal
PC-3 prostate = system: PC-3 prostate
786-0 renal = system: 786-0 renal
HS 578T breast = system: HS 578T breast
NCI-H226 lung = system: NCI-H226 lung
SNB-19 CNS = system: SNB-19 CNS
UACC-257 melanoma = system: UACC-257 melanoma
HOP-92 NSCLC = system: HOP-92 NSCLC
LOX IMVI melanoma = system: LOX IMVI melanoma
SK-MEL-2 melanoma = system: SK-MEL-2 melanoma
KM12 colon = system: KM12 colon
A498 renal = system: A498 renal
MDA-MB-231 breast = system: MDA-MB-231 breast
NCI-H23 lung = system: NCI-H23 lung
A549 NSCLC = system: A549 NSCLC
SR leukemia = system: SR leukemia
COLO 205 colon = system: COLO 205 colon
HOP-62 NSCLC = system: HOP-62 NSCLC
SK-MEL-5 melanoma = system: SK-MEL-5 melanoma
CCRF-CEM leukemia = system: CCRF-CEM leukemia
RPMI-8226 leukemia = system: RPMI-8226 leukemia
ACHN renal = system: ACHN renal
OVCAR-8 ovarian = system: OVCAR-8 ovarian
T-47D breast = system: T-47D breast
SF-539 CNS = system: SF-539 CNS
EKVX NSCLC = system: EKVX NSCLC
MALME-3M melanoma = system: MALME-3M melanoma
K-562 leukemia = system: K-562 leukemia
HCC-2998 colon = system: HCC-2998 colon
SN12C renal = system: SN12C renal
SW-620 colon = system: SW-620 colon
IGROV1 ovarian = system: IGROV1 ovarian
HL-60(TB) leukemia = system: HL-60(TB) leukemia
OVCAR-4 ovarian = system: OVCAR-4 ovarian
DU-145 prostate = system: DU-145 prostate
MOLT-4 leukemia = system: MOLT-4 leukemia
UO-31 renal = system: UO-31 renal
SK-MEL-28 melanoma = system: SK-MEL-28 melanoma

## Oc1ccc(CSc2nnc(-c3ccccc3)o2)c2cccnc12
SK-OV-3 ovarian
  GI50: 2.87 µM
  TGI: 15 µM
MDA-MB-435
  GI50: 1.08 µM
  TGI: > 100 µM
HCT-116 colon
  GI50: 1.65 µM
  TGI: > 100 µM
HCT-15 colon
  GI50: 0.797 µM
  TGI: > 100 µM
HT29 colon
  GI50: 6.97 µM
  TGI: > 100 µM
OVCAR-5 ovarian
  GI50: 6.65 µM
  TGI: > 100 µM
CAKI-1 renal
  GI50: 2.87 µM
  TGI: > 100 µM
NCI-H460 lung
  GI50: 0.527 µM
  TGI: > 100 µM
UACC-62 melanoma
  GI50: 2.19 µM
  TGI: 6.01 µM
NCI-H522 lung
  GI50: 2.33 µM
  TGI: > 100 µM
U251 CNS
  GI50: 0.783 µM
  TGI: > 100 µM
BT-549 breast
  GI50: 0.923 µM
  TGI: > 100 µM
SNB-75 CNS
  GI50: 1.47 µM
  TGI: 15.6 µM
SF-295 CNS
  GI50: 1.39 µM
  TGI: 21 µM
SF-268 CNS
  GI50: 0.92 µM
  TGI: > 100 µM
RXF 393 renal
  GI50: 3.27 µM
  TGI: 97.2 µM
MCF7 breast
  GI50: 2.45 µM
  TGI: > 100 µM
TK-10 renal
  GI50: 2.52 µM
  TGI: 9.86 µM
PC-3 prostate
  GI50: 1.03 µM
  TGI: > 100 µM
786-0 renal
  GI50: 3.14 µM
  TGI: 11.9 µM
HS 578T breast
  GI50: 0.721 µM
  TGI: > 100 µM
NCI-H226 lung
  GI50: 3.78 µM
  TGI: > 100 µM
SNB-19 CNS
  GI50: 0.817 µM
  TGI: 19.3 µM
UACC-257 melanoma
  GI50: 2.62 µM
  TGI: 8.92 µM
HOP-92 NSCLC
  GI50: 0.499 µM
  TGI: 5.36 µM
LOX IMVI melanoma
  GI50: 1.56 µM
  TGI: 11.3 µM
SK-MEL-2 melanoma
  GI50: 2.55 µM
  TGI: 29.8 µM
KM12 colon
  GI50: 0.724 µM
  TGI: > 100 µM
A498 renal
  GI50: 4.1 µM
  TGI: > 100 µM
MDA-MB-231 breast
  GI50: 4.01 µM
  TGI: > 100 µM
NCI-H23 lung
  GI50: 2.44 µM
  TGI: 14 µM
A549 NSCLC
  GI50: 2.69 µM
  TGI: > 100 µM
SR leukemia
  GI50: 0.873 µM
  TGI: > 100 µM
COLO 205 colon
  GI50: 59.3 µM
  TGI: > 100 µM
HOP-62 NSCLC
  GI50: 2.33 µM
  TGI: 30.6 µM
SK-MEL-5 melanoma
  GI50: 1.83 µM
  TGI: 6.4 µM
CCRF-CEM leukemia
  GI50: 1.13 µM
  TGI: > 100 µM
RPMI-8226 leukemia
  GI50: 0.772 µM
  TGI: > 100 µM
ACHN renal
  GI50: 2.03 µM
  TGI: 5.89 µM
OVCAR-8 ovarian
  GI50: 1.77 µM
  TGI: > 100 µM
T-47D breast
  GI50: 2.55 µM
  TGI: > 100 µM
SF-539 CNS
  GI50: 1.49 µM
  TGI: 15.8 µM
EKVX NSCLC
  GI50: 2.62 µM
  TGI: > 100 µM
MALME-3M melanoma
  GI50: 2.8 µM
  TGI: > 100 µM
K-562 leukemia
  GI50: 2.05 µM
  TGI: > 100 µM
HCC-2998 colon
  GI50: 2.26 µM
  TGI: > 100 µM
SN12C renal
  GI50: 2.64 µM
  TGI: > 100 µM
SW-620 colon
  GI50: 2.57 µM
  TGI: > 100 µM
IGROV1 ovarian
  GI50: 2.42 µM
  TGI: > 100 µM
HL-60(TB) leukemia
  GI50: 1.39 µM
  TGI: 6.62 µM
OVCAR-4 ovarian
  GI50: 4.34 µM
  TGI: > 100 µM
DU-145 prostate
  GI50: 3.41 µM
  TGI: > 100 µM
MOLT-4 leukemia
  GI50: 2.03 µM
  TGI: > 100 µM
UO-31 renal
  GI50: 1.56 µM
  TGI: 7.47 µM
SK-MEL-28 melanoma
  GI50: 2.29 µM
  TGI: > 100 µM
